From patent publication US20120020940A1, “ANTIMICROBIAL PEPTIDES” (Helmholtz Zentrum München Deutsches Forschungszentrum Für …, priority 2008, published 2012)
Like-named read-outs stand apart in the source and are kept apart here. No end group written: not given here.

Key:
[1] = system: Clavibacter michiganensis; assay: MIC and lethal concentration (Example 3); format: cell-based; conditions: Table 2; for MIC (>90% inhibition): 1-2 days at 25° C.; for LC, lethal concentration (100% inhibition): at least 4 days of incubation
Protocol: (§1) In-vitro inhibition assays were performed in sterile flat-bottom 96-well plates (Greiner bio-one, Frickenhausen). Antimicrobial peptides were dissolved in 0.01% acetic acid containing 0.2% BSA (500 μg/ml), filter sterilized and stored at −20° C. For inhibition assays dilutions of peptides ranging from 5 to 200 μg/ml were prepared and 10 μl (antibacterial assay) or 20 μl (antifungal assay) of each concentration was loaded per well.
(§2) Bacteria colonies from overnight agar plate cultures were resuspended into 5 ml LB-medium or HPG-medium (OD600 nm=0.08-0.1) and diluted into LB-medium/HPG-medium (1:100). 90 μl of this suspension containing about 10^5-10^6 CFU/ml of tested bacteria were added to each well resulting in final peptide concentrations of 0, 0.5, 1, 2, 5, 10, and 20 μg/ml. […] The lowest concentration, in which there is no observable growth (>90% inhibition) is referred to as minimal inhibitory concentration (MIC). […] For each peptide concentration two identical inhibition assays were performed.

[2] = system: Pectobacterium carotovorum; assay: MIC and lethal concentration (Example 3); format: cell-based; conditions: Table 2; for MIC (>90% inhibition): 1-2 days at 25° C.; for LC, lethal concentration (100% inhibition): at least 4 days of incubation
Protocol: as §1, §2

Pseudomonas corrugata [3] = assay: MIC and lethal concentration (Example 3); format: cell-based; conditions: Table 2; for MIC (>90% inhibition): 1-2 days at 25° C.; for LC, lethal concentration (100% inhibition): at least 4 days of incubation
Protocol: as §1, §2

[4] = system: Pseudomonas syringae pv. syringae; assay: MIC and lethal concentration (Example 3); format: cell-based; conditions: Table 2; for MIC (>90% inhibition): 1-2 days at 25° C.; for LC, lethal concentration (100% inhibition): at least 4 days of incubation
Protocol: as §1, §2

[5] = system: Pseudomonas syringae pv. tomato; assay: MIC and lethal concentration (Example 3); format: cell-based; conditions: Table 2; for MIC (>90% inhibition): 1-2 days at 25° C.; for LC, lethal concentration (100% inhibition): at least 4 days of incubation
Protocol: as §1, §2

Xanthomonas vesicatoria [6] = assay: MIC and lethal concentration (Example 3); format: cell-based; conditions: Table 2; for MIC (>90% inhibition): 1-2 days at 25° C.; for LC, lethal concentration (100% inhibition): at least 4 days of incubation
Protocol: as §1, §2

Escherichia coli (DH5α) = format: cell-based
Protocol: (§3) In-vitro inhibition assays were performed in sterile ELISA-plates (Greiner bio-one, Frickenhausen or Nunc, Wiesbaden). Antimicrobial peptides were dissolved in 0.01% acetic acid containing 0.2% BSA and stored at −20° C. […] After incubation for one day at 27° C. growth inhibition of the bacteria was analyzed by a ELISA microplate reader.

Pseudomonas aeruginosa = format: cell-based
Protocol: as §3

Staphylococcus aureus = format: cell-based
Protocol: as §3

[7] = system: Staphylococcus epidermidis; format: cell-based
Protocol: as §3

Yersinia enterocolitica = format: cell-based
Protocol: as §3

Alternaria alternata = assay: MIC, antifungal in-vitro inhibition assay (Example 2); format: cell-based; conditions: Table 1
Protocol: as §1
(§4) Spores of fungi were collected by water washes of sporulating cultures grown on 2% malt extract agar and spore concentration was determined by microscopy. The concentration of the spores was adjusted to 1.5-2×10^3 spores/ml in 2% malt extract medium and 80 μl of fungal spores were added per well. The final peptide concentrations used in the fungal inhibition assays were […]. After overnight incubation at room temperature the plate were put on a rotary shaker (300 rpm) for further two days to ensure consistantly growth. Antifungal effects of the peptides were determined by a microplate reader (Alternaria, Fusarium) at OD590 nm or by visual screening of the plates (Botrytis, Cladosporium).
(§5) The lowest peptide concentration leading to complete inhibition of bacterial growth or spore germination/mycelial growth (minimal inhibition concentration, MIC) was determined for each organism-peptide combination. For each peptide concentration two identical inhibition assays were performed.

Botrytis cinerea = assay: as above; format: cell-based; conditions: Table 1
Protocol: as §1, §4, §5

Cladosporium herbarum = assay: as above; format: cell-based; conditions: Table 1
Protocol: as §1, §4, §5

human erythrocytes = assay: Hemolytic activity, hemoglobin release; format: cell-based; conditions: 45 min at 37° C., Table 3
Protocol: The hemolytic activity of the peptides was evaluated by determining hemoglobin release of suspensions of fresh human erythrocytes at 405 nm. Human red blood cells were centrifuged and washed three times with Tris-buffer (10 mM Tris, 150 mM NaCl, pH 7.4). Eighty μl of human red blood cells (1.5×10^9/ml) were added to 20 μl of the peptides solution (peptides dissolved in 0.2% BSA, 0.01% HAc) in 96-well plates (Greiner bio-one, Frickenhausen) and incubated for 45 min at 37° C. The endconcentration of the peptides were 0, 20, 50, 100 and 200 μg/ml. After centrifugation (1500×g, 5 min, 20° C.) 30 μl aliquots of the supernatant were transferred to 96-well plates containing 100 μl water. Hemolysis was measured by absorbance at 405 nm with a microplate reader. 100% hemolysis were determined in 2% SDS. The hemolysis percentage was calculated using the following equation: % hemolysis=[(Abs405 nm in the peptide solution−Abs405 nm in peptides solvent)/(Abs405 nm in 2% SDS−Abs405 nm in peptide solvent)]×100.
Further hemolytic activities of the various peptides of the present invention may be taken from the table depicted in example 3, last row indicated as “Hemolytic activity”. In connection therewith, however, the concentrations are stated where at least 50% hemolysis was observed.

[8] = system: Clavibacter michiganensis sub. michiganensis; conditions: overnight 25° C., Table 1
[9] = system: Pectobacterium carotovorum sub. carotovorum
Xanthomonas vesicatoria [10] = system: Xanthomonas vesicatoria
[11] = system: Pseudomonas syringae pv. tomato
[12] = system: Pseudomonas syringae pv. syringae
Pseudomonas corrugata [13] = system: Pseudomonas corrugata
Enterobacter cloacae = format: cell-based
Protocol: as §3

Klebsiella pneumoniae = format: cell-based
Protocol: as §3

Klebsiiella oxytoca = format: cell-based
Protocol: as §3

[14] = system: human immundeficiency virus (HIV); format: cell-based; conditions: HeLa cells LC5-RIC pre-incubated 30 min with peptide, read after 72 h; read-out: IC50, concentration where the infection is decreased by 50% (compared to non-treated controls)
Protocol: To measure the activity of the designed oligopeptides against human immundeficiency virus (HIV) a fluorescence-based reporter system was used. HeLa cells (LC5-RIC) harbour a reporter gene, which regulates in dependency of HIV Rev and Tat proteins the synthesis of a red fluorescing protein. In this way the infection of the HeLa cells (LC5-RIC) is indicated and the infection rate can be quantified using a fluorescence microplate reader.
(§6) Antimicrobial oligopeptides were dissolved in 0.01% acetic acid containing 0.2% BSA (500 μg/ml), filter sterilized and stored at −20° C. […] (in 5% CO2). Afterwards, virus particles were added to the pre-treated HeLa cells and the infection was quantified by measuring red fluorescence with a fluorescence microplate reader after 72 h incubation. The viability of the HeLa cells was determined by measuring the activity of the mitochondrial dehydrogenase according to Lindl and Bauer (1994) and Mosmann (1983).

HeLa cells = assay: Cell viability, mitochondrial dehydrogenase activity; format: cell-based; conditions: at the IC50 concentration (6.8 μM)
Protocol: as §6

Row | Substance | MIC (>90% inhibition) [1] | LC, lethal concentration (100% inhibition) [1] | MIC (>90% inhibition) [2] | LC, lethal concentration (100% inhibition) [2] | MIC (>90% inhibition) (Pseudomonas corrugata [3]) | LC, lethal concentration (100% inhibition) (Pseudomonas corrugata [3]) | MIC (>90% inhibition) [4] [µg/mL] | LC, lethal concentration (100% inhibition) [4] [µg/mL] | MIC (>90% inhibition) [5] | LC, lethal concentration (100% inhibition) [5] | MIC (>90% inhibition) (Xanthomonas vesicatoria [6]) | LC, lethal concentration (100% inhibition) (Xanthomonas vesicatoria [6]) | MIC (>90% inhibition) (Escherichia coli (DH5α); DH5α) [µg/mL] | MIC (>90% inhibition) (Pseudomonas aeruginosa) [µg/mL] | MIC (>90% inhibition) (Staphylococcus aureus) [µg/mL] | MIC (>90% inhibition) [7] [µg/mL] | MIC (>90% inhibition) (Yersinia enterocolitica) [µg/mL] | Minimal inhibition concentration (MIC) for complete inhibition of spore germination/mycelial growth (Alternaria alternata) [µg/mL] | Minimal inhibition concentration (MIC) for complete inhibition of spore germination/mycelial growth (Botrytis cinerea) [µg/mL] | Minimal inhibition concentration (MIC) for complete inhibition of spore germination/mycelial growth (Cladosporium herbarum) [µg/mL] | also measured
1 | LRFLKKALKKLF-NH2 [SP10-2] | 0.25/0.25 μg/ml | 0.25/0.25 μg/ml | 1.0 µg/mL | 2.5 µg/mL | 0.5/0.5 μg/ml | 0.5/0.5 μg/ml | 0.1 | 0.25 | 0.5/0.5 μg/ml | 0.5/0.5 μg/ml | 0.25/0.25 μg/ml | 0.25/0.25 μg/ml | 1 | 1 | 1 | 1 | 10 | – | – | – | –
2 | LRFLKKILKHLF (also: D-amino acids incorporated, places not given here) [SP10-D] | – | – | – | – | – | – | – | – | – | – | – | – | – | – | – | – | – | 5 | 10 | 5 | Hemolytic activity, concentration where at least 25% hemolysis was observed (human erythrocytes): >200 µg/mL; Minimal inhibition concentration (MIC) for complete inhibition of bacterial growth [8]: 5 µg/mL; Minimal inhibition concentration (MIC) for complete inhibition of bacterial growth ([9]; Pectobacterium carotovorum sub. carotovorum, overnight 25° C., Table 1): >40 µg/mL; Minimal inhibition concentration (MIC) for complete inhibition of bacterial growth (Xanthomonas vesicatoria [10]; Xanthomonas vesicatoria, overnight 25° C., Table 1): 2 µg/mL; Minimal inhibition concentration (MIC) for complete inhibition of bacterial growth ([11]; Pseudomonas syringae pv. tomato, overnight 25° C., Table 1): 0.5 µg/mL; Minimal inhibition concentration (MIC) for complete inhibition of bacterial growth ([12]; Pseudomonas syringae pv. syringae, overnight 25° C., Table 1): 2.5 µg/mL; Minimal inhibition concentration (MIC) for complete inhibition of bacterial growth (Pseudomonas corrugata [13]; Pseudomonas corrugata, overnight 25° C., Table 1): 2.5 µg/mL
3 | LRFLKKILKHLF-NH2 [SP10, LRFLKKILKHLF -NH2] | 0.5/0.5 μg/ml | 0.5/0.5 μg/ml | 1.0 µg/mL | 2.5 µg/mL | 0.5 µg/mL | 1.0 µg/mL | 0.5 | 1.0 | 2.5/2.5 μg/ml | 2.5/2.5 μg/ml | 0.5/0.5 μg/ml | 0.5/0.5 μg/ml | 10 | 10 | 5 | 2 | 10 | >100 | >100 | 10 | MIC (>90% inhibition) (Enterobacter cloacae): 20 µg/mL; MIC (>90% inhibition) (Klebsiella pneumoniae): 20 µg/mL; MIC (>90% inhibition) (Klebsiiella oxytoca): 20 µg/mL; Minimal inhibition concentration (MIC) for complete inhibition of bacterial growth [8]: 10 µg/mL; Minimal inhibition concentration (MIC) for complete inhibition of bacterial growth [9]: 20 µg/mL; Minimal inhibition concentration (MIC) for complete inhibition of bacterial growth (Xanthomonas vesicatoria [10]): 5 µg/mL; Minimal inhibition concentration (MIC) for complete inhibition of bacterial growth [11]: 10 µg/mL; Minimal inhibition concentration (MIC) for complete inhibition of bacterial growth [12]: 10 µg/mL; Minimal inhibition concentration (MIC) for complete inhibition of bacterial growth (Pseudomonas corrugata [13]): 20 µg/mL
4 | LRKAKKIAKKLF-NH2 [SP10-11] | 5.0/5.0 μg/ml | 5.0/5.0 μg/ml | >10/>10 μg/ml | >10/>10 μg/ml | 0.5/0.5 μg/ml | 0.5/0.5 μg/ml | 0.1 | 0.25 | 0.5/0.5 μg/ml | 0.5/0.5 μg/ml | 0.5 µg/mL | 1.0 µg/mL | – | – | – | – | – | – | – | – | IC50 [14]: 6.8 µM; negative/toxic effect on test cells (HeLa cells) (HeLa cells): No negative/toxic effect
5 | LRKLKKILKKLF-NH2 [SP10-10] | 0.25 µg/mL | 0.5 µg/mL | 2.5 µg/mL | 5.0 µg/mL | 0.25/0.25 μg/ml | 0.25/0.25 μg/ml | 0.25 | 0.5 | 0.5 µg/mL | 1.0 µg/mL | 0.1 µg/mL | 0.5 µg/mL | – | – | – | – | – | – | – | – | MIC (>90% inhibition) (Escherichia coli (DH5α); Escherichia coli (DH5α), one day at 27° C., Table 4): 1 µg/mL; MIC (>90% inhibition) (Pseudomonas aeruginosa; Pseudomonas aeruginosa, one day at 27° C., Table 4): 2 µg/mL; MIC (>90% inhibition) (Staphylococcus aureus; Staphylococcus aureus, one day at 27° C., Table 4): 10 µg/mL; MIC (>90% inhibition) ([7]; Staphylococcus epidermidis, one day at 27° C., Table 4): 1 µg/mL; MIC (>90% inhibition) (Yersinia enterocolitica; Yersinia enterocolitica, one day at 27° C., Table 4): >50 µg/mL
